Assay results reported in patent US8703723B2, “Glycoside compounds and pharmaceutical compositions thereof” (Centrose, LLC, priority 2009, dated 2014).

Tests used:
A549 (NSCLC) cell line = test: Cancer cell cytotoxicity assay (Calcein AM / Cell Titer-Glo), A549; type: cell-based, human
Method: (§1) Compounds of the invention and comparative compounds were assayed in three cancer cell lines to confirm cytotoxic activity and to set a range of concentrations to use in subsequent assays. All cell lines were maintained in RPMI medium 1640 supplemented with 10% (wt/vol) fetal bovine serum and penicillin-streptomycin (100 units/ml and 100 μg/ml). Cells were routinely checked for microbial or mycoplasma contamination and if necessary replaced. Cells were harvested by trypsinization using 0.25% trypsin and 0.1% EDTA and then counted in a ViCell XR coulter counter in duplicate, before and after dilution for assay plating. Between four to nine different types of human cancer cells were plated at a density of 10,000-15,000 cells per well of each 96-well black tissue culture treated microtiter plate, then were grown for 1 hour at 37° C. with 5% CO2/95% air in a humidified incubator to allow cells to attach before compound addition. Compound stocks (100×) were prepared in 96-well V-bottom polypropylene microtiter plates. Five serial (1:2) dilutions were made with anhydrous DMSO at 100× the final concentration used in the assay. The individual wells in compound-containing […] well plates were diluted 1:10 with complete cell culture medium and the 10× (10 μL) stocks were added to 90 μl of cells in each plate to ensure full mixing of stocks with culture media by using a Biomek FX liquid handler with 96-well head. Doxorubicin was used as the control to monitor the behavior of each cell line. Cells were incubated with the compounds for 3 to 4 days before fluorescence and luminescence reading. Test plates were removed from the incubator and washed once in sterile PBS to remove serum containing calcium esterases. Calcein AM (acetoxymethyl ester) reagent was added and the cells were incubated for 30 min at 37° C. Plates were read for emission by using a fluorescein filter (excitation 485 nm, emission 535 nm). An equal volume (30 μL) of Cell Titer-Glo reagent (Promega Corporation, Inc.) was added and incubated for 10 min at room temperature with gentle agitation to lyse the cells. Each plate was re-read for luminescence to confirm the inhibition observed in the fluorescent […] assay as a measure of cell viability. The cancer cell cytotoxicity assays were run in triplicate using ≧5 different drug concentrations, and the data were analyzed to establish statistical significance and a valid IC50 value for inhibition of cell growth, based on ≧2 log differences in drug effect.
(§2) The cancer cell cytotoxicities (determined substantially according to the method of Example 5) of various compounds of the invention and comparative compounds as determined in four to five different human cancer cell lines are shown in Table 1. The structures of the compounds listed are found in FIGS. 2-4.

H1299 (NSCLC) cell line = test: Cancer cell cytotoxicity assay (Calcein AM / Cell Titer-Glo), H1299; type: cell-based, human
Method: as §1, §2

[1] = test system: NCI-H460 (NSCLC) cell line; test: Cancer cell cytotoxicity assay (Calcein AM / Cell Titer-Glo), NCI-H460; type: cell-based, human
Method: as §1, §2

[2] = test system: HT29 (Colorectal) cell line; test: Cancer cell cytotoxicity assay (Calcein AM / Cell Titer-Glo), HT29; type: cell-based, human
Method: as §1, §2

[3] = test system: SKOV3 (Ovarian) cell line; test: Cancer cell cytotoxicity assay (Calcein AM / Cell Titer-Glo), SKOV3; type: cell-based, human
Method: as §1, §2

human cancer cell lines = test: Cancer cell cytotoxicity, summary over four to five human cancer cell lines; type: cell-based; conditions: read-out: IC50 values (cancer cell cytotoxicity)
Method: as §1, §2

[4] = NSCLC, footnote 3: determined at same time as CEN07-117 and -121
[5] = Colorectal, footnote 3: determined at same time as CEN07-117 and -121
[6] = Ovarian, footnote 3: determined at same time as CEN07-117 and -121
[7] = NSCLC, footnote 4: determined at same time as CEN08-177 and -178
[8] = Colorectal, assay set not specified
[9] = Ovarian, assay set not specified
[10] = Homo sapiens, A549, NSCLC, footnote 6: determined at same time as CEN08-243 and -244
[11] = Homo sapiens, NCI-H1299, NSCLC, footnote 6: determined at same time as CEN08-243 and -244
[12] = Homo sapiens, NCI-H460, NSCLC, footnote 6: determined at same time as CEN08-243 and -244
[13] = Homo sapiens, SK-OV-3, Ovarian, footnote 6: determined at same time as CEN08-243 and -244
[14] = NSCLC, footnote 7: determined at same time as CEN08-180

With `CON(C1CCC2(C)C(CCC3C2CC(O)C2(C)C(C4=CC(=O)OC4)CCC32O)C1)C1OCC(O)C(O)C1O` (stereo not drawn) [CEN07-117] the IC50 (A549 (NSCLC) cell line; [4]) was 340 nM, the IC50 (H1299 (NSCLC) cell line; [4]) was 500 nM and the IC50 [1, 4] was 350 nM. The IC50 [2, 5] was 440 nM and the IC50 [3, 6] was 550 nM.
Work on `CON(C1CCC2(C)C(CCC3C2CC(O)C2(C)C(C4=CC(=O)OC4)CCC32O)C1)C1OCC(O)C(O)C1O` (stereo not drawn) [CEN07-121] yielded an IC50 (A549 (NSCLC) cell line; [4]) of 150 nM, an IC50 (H1299 (NSCLC) cell line; [4]) of 430 nM and an IC50 [1, 4] of 160 nM. It also gave an IC50 [2, 5] of 230 nM and an IC50 [3, 6] of 300 nM.
`CC12CCC(OC3OCC(O)C(O)C3O)CC1CCC1C2CCC2(C)C(C3=CC(=O)OC3)CCC12O` (stereo not drawn) [CEN08-177] gave an IC50 (A549 (NSCLC) cell line; [7]) of 20 nM, an IC50 (H1299 (NSCLC) cell line; [7]) of 40 nM and an IC50 [1, 7] of 20 nM. It also gave an IC50 ([2]; Colorectal, footnote 4: determined at same time as CEN08-177 and -178) of 70 nM and an IC50 ([3]; Ovarian, footnote 4: determined at same time as CEN08-177 and -178) of 80 nM.
Compound `CON(C1C=C2CCC3C(CCC4(C)C(c5ccc(=O)oc5)CCC34O)C2(C)CC1)C1OCC(O)C(O)C1O` (stereo not drawn) [CEN08-185] has an IC50 (A549 (NSCLC) cell line; NSCLC, assay set not specified) of 2 nM, an IC50 (H1299 (NSCLC) cell line; NSCLC, assay set not specified) of 5 nM and an IC50 ([1]; NSCLC, assay set not specified) of 9 nM. The IC50 [2, 8] was 13 nM and the IC50 [3, 9] was 15 nM.
Work on `CC12CCC(OC3OCC(O)C(O)C3O)C=C1CCC1C2CCC2(C)C(c3ccc(=O)oc3)CCC12O` (stereo not drawn) [CEN08-190] yielded an IC50 (A549 (NSCLC) cell line; NSCLC, assay set not specified) of 4 nM, an IC50 (H1299 (NSCLC) cell line; NSCLC, assay set not specified) of 4 nM and an IC50 ([1]; NSCLC, assay set not specified) of 6 nM. The IC50 [2, 8] was 6 nM and the IC50 [3, 9] was 28 nM.
`CC12CCC(OC3OCC(O)C(O)C3O)C=C1CCC1C2CCC2(C)C(c3ccc(=O)oc3)CCC12O` (stereo not drawn) [CEN08-192] was tested, and the IC50 (A549 (NSCLC) cell line; NSCLC, assay set not specified) was 8 nM, the IC50 (H1299 (NSCLC) cell line; NSCLC, assay set not specified) was 11 nM and the IC50 ([1]; NSCLC, assay set not specified) was 16 nM. The IC50 [2, 8] was 16 nM and the IC50 [3, 9] was 72 nM.
For `CON(C1C=C2CCC3C(CCC4(C)C(c5ccc(=O)oc5)CCC34O)C2(C)CC1)C1OC(CO)C(O)C(O)C1N` (stereo not drawn) [CEN08-237], the IC50 (A549 (NSCLC) cell line; NSCLC, assay set not specified) was 21 nM, the IC50 (H1299 (NSCLC) cell line; NSCLC, assay set not specified) was 20 nM and the IC50 ([1]; NSCLC, assay set not specified) was 37 nM.
`CON(C1CCC2(C)C(CCC3C2CCC2(C)C(C4=CC(=O)OC4)CCC32O)C1)C1OCC(N)C(O)C1O` (stereo not drawn) [CEN08-241] gave an IC50 (A549 (NSCLC) cell line; NSCLC, assay set not specified) of 20 nM, an IC50 (H1299 (NSCLC) cell line; NSCLC, assay set not specified) of 24 nM and an IC50 ([1]; NSCLC, assay set not specified) of 27 nM. It also gave an IC50 [3, 9] of 74 nM.
In the case of `CON(C1CCC2(C)C(CCC3C2CCC2(C)C(C4=CC(=O)OC4)CCC32O)C1)C1OCC(N)C(O)C1O` (stereo not drawn) [CEN08-242], the IC50 (A549 (NSCLC) cell line; NSCLC, assay set not specified) is reported as 50 nM, the IC50 (H1299 (NSCLC) cell line; NSCLC, assay set not specified) is reported as 159 nM and the IC50 ([1]; NSCLC, assay set not specified) is reported as 74 nM. For the same compound, the IC50 [3, 9] was 228 nM.
Work on `CON(C1C=C2CCC3C(CC[C@]4(C)[C@@H](c5ccc(=O)oc5)CC[C@]34O)[C@@]2(C)CC1)[C@H]1OC[C@H](N)[C@H](O)C1O` (stereo partly drawn) [CEN08-243, (3S)-3-N-methoxyamino-scillarenin-L-neo-4-amino-4-deoxyxyloside] yielded an IC50 (A549 (NSCLC) cell line; [10]) of 3 nM, an IC50 (H1299 (NSCLC) cell line; [11]) of 7 nM and an IC50 [1, 12] of 5 nM. The IC50 [3, 13] was 5 nM and the IC50 (human cancer cell lines) was < 80 nM.
Work on `CON(C1OC[C@H](N)[C@H](O)[C@@H]1O)[C@@H]1C=C2CCC3C(CC[C@]4(C)[C@@H](c5ccc(=O)oc5)CC[C@]34O)[C@@]2(C)CC1` (stereo partly drawn) [CEN08-244, (3S)-3-N-methoxyamino-scillarenin-L-neo-4-amino-4-deoxyriboside] yielded an IC50 (A549 (NSCLC) cell line; [10]) of 4 nM, an IC50 (H1299 (NSCLC) cell line; [11]) of 10 nM and an IC50 [1, 12] of 6 nM. The IC50 [3, 13] was 6 nM and the IC50 (human cancer cell lines) was < 80 nM.
With `CC1OC(=O)C=C1C1CCC2(O)C3CCC4CC(OC5OCC(O)C(O)C5O)CCC4(C)C3CCC12C` (stereo not drawn) [CEN08-245] the IC50 (A549 (NSCLC) cell line; NSCLC, assay set not specified) was 1290 nM, the IC50 (H1299 (NSCLC) cell line; NSCLC, assay set not specified) was 3700 nM and the IC50 ([1]; NSCLC, assay set not specified) was 2100 nM. For the same compound, the IC50 [3, 9] was 3220 nM.
`C[C@@H]1O[C@@H](O[C@@H]2C=C3CC[C@@H]4[C@H](CC[C@]5(C)[C@@H](c6ccc(=O)oc6)CC[C@]45O)[C@@]3(C)CC2)[C@H](O)[C@H](O)[C@H]1O` [proscillaridin, reference compound] was tested, and the IC50 (A549 (NSCLC) cell line; [10]) was 12 nM, the IC50 (A549 (NSCLC) cell line; Homo sapiens, A549, NSCLC, footnote 7: determined at same time as CEN08-180) was 3 nM and the IC50 (A549 (NSCLC) cell line; Homo sapiens, A549, NSCLC, footnote 5: determined at same time as CEN08-193) was 2 nM. It also gave an IC50 (H1299 (NSCLC) cell line; [11]) of 8 nM, an IC50 (H1299 (NSCLC) cell line; Homo sapiens, NCI-H1299, NSCLC, footnote 7: determined at same time as CEN08-180) of 4 nM and an IC50 (H1299 (NSCLC) cell line; Homo sapiens, NCI-H1299, NSCLC, footnote 5: determined at same time as CEN08-193) of 3 nM. For the same compound, the IC50 [1, 12] was 12 nM, the IC50 ([1]; Homo sapiens, NCI-H460, NSCLC, footnote 7: determined at same time as CEN08-180) was 11 nM and the IC50 ([1]; Homo sapiens, NCI-H460, NSCLC, footnote 5: determined at same time as CEN08-193) was 5 nM. The IC50 ([2]; Homo sapiens, HT-29, Colorectal, footnote 7: determined at same time as CEN08-180) was 10 nM, the IC50 ([2]; Homo sapiens, HT-29, Colorectal, footnote 5: determined at same time as CEN08-193) was 7 nM and the IC50 ([3]; Homo sapiens, SK-OV-3, Ovarian, assay set not specified) was 12 nM. The IC50 [3, 13] was 15 nM, the IC50 ([3]; Homo sapiens, SK-OV-3, Ovarian, footnote 7: determined at same time as CEN08-180) was 11 nM and the IC50 ([3]; Homo sapiens, SK-OV-3, Ovarian, footnote 5: determined at same time as CEN08-193) was 45 nM.
Work on “(3β)-3-N-methoxyaminoscillarenin [CEN08-180]” yielded an IC50 (A549 (NSCLC) cell line; [14]) of 3 nM, an IC50 (H1299 (NSCLC) cell line; [14]) of 8 nM and an IC50 [1, 14] of 13 nM. It also gave an IC50 ([2]; Colorectal, footnote 7: determined at same time as CEN08-180) of 26 nM and an IC50 ([3]; Ovarian, footnote 7: determined at same time as CEN08-180) of 34 nM.
